# Article PMC4948680 (European journal of pharmaceutical sciences : official …, 2016)
# Assays:
# [1] = system: A431-CCK2R(±) xenografts; assay: in vivo; design: species or system SCID mice; details: SCID, mouse, iv, 10 pmol peptide, 4 h
# Procedure: (§1) The human epidermoid A431 cell line transfected to stably express the CCK2R (A431-CCK2R(+)) or devoid of CCK2R expression (A431-CCK2R(−)) used for tumour induction in this work was a gift from Prof. O. Boerman (Department of Nuclear Medicine, Radboud University Nijmegen Medical Centre, Nijmegen, The Netherlands) and Prof. L. Aloj (Istituto di Biostrutture e Bioimmagini, Consiglio Nazionale delle Ricerche, Naples, Italy) and cells were cultured as previously reported ([Aloj et al., 2004]). Suspensions of freshly harvested A431-CCK2R(±) cells (~150 μL, 1.6 × 10^7/1.4 × 10^7) in normal saline were subcutaneously injected in the flanks of mice.
# (§2) Animals were euthanized in groups of four at 1 h, 4 h and 24 h pi; in a separate 4-h group animals received gelofusine (100 μL) together with the radioligand. […] Mice were dissected and samples of blood and tissues of interest as well as tumours were excised, weighted and counted for radioactivity in the gamma counter. Data was calculated as percent injected dose per gram tissue (%ID/g) with the aid of suitable standards of the injected dose and represent mean ± SD. In all above experiments, analysis of the solution used in the biodistribution experiment was conducted prior to and after completion of all animal injections.
# (§3) Statistical analysis using the unpaired two-tailed Student’s t-test was performed to compare values between A431-CCK2R(+) and A431-CCK2R(−) tumours, as well as kidney, stomach and A431-CCK2R(+) tumour values between 4 h control and gelofusine-treated animal groups; values P < 0.05 were considered statistically significant (Table 2). The pharmacokinetic profile was determined by fitting an exponential curve through the organ time-activity data according to the least-squares method. The number of exponentials in the fitted curve was analysed according to the Aikake Information Criterion (AICc). All fitting was performed with Graphpad Prism version 5.
# [2] = in vivo; design: species or system SCID mice; details: SCID, mouse, iv, 10 pmol peptide, total radioactivity, %ID/g tissue
# Procedure: as §1, §2, §3
# [3] = design: species or system humans
# Procedure: Clearance kinetics in each organ was determined by exponential curve fitting. The time-integrated activity concentration (TIAC) was obtained by integration of this exponential curve folded with the decay curve of ^111In and ^177Lu.Mouse dosimetry was calculated for both ^177Lu and ^111In using the TIAC and the 25 g RADAR mouse absorbed dose rates per unit activity S for each source and target organ combination ([Keenan et al., 2010]; [Konijnenberg et al., 2014]).
# Extrapolation of biodistribution uptake data in mice to humans was based on two options for interspecies scaling ([Stabin, 2008]). 1. (%IA/organ)human=[(%IA/g)mouse×Mmouse(kg)]×(m(g)/M(kg))human with m the organ mass and M the total body weight of mouse or human and with %IA/gand%IA/organ the percentage of the injected activity concentration and per organ, respectively. The mouse organ TIACs are multiplied with the ratio of mouse and human body weights Mmouse/Mhuman to obtain the extrapolated human TIAC, and this multiplied with the organ mass (from the MIRD standard man phantom) yields the residence time in each source organ. 2. (%IA/organ)human=(%IA/organ)mouse=(%IA/g)mouse×mmouse in this method the uptake per organ is extrapolated one-to-one from mouse to man. The extrapolated human residence time is obtained by multiplying the mouse TIAC or each source organ with its mouse organ mass. […]
structure (smiles),measurement,setting,value
"CSCC[C@H](NC(=O)[C@H](Cc1c[nH]c2ccccc12)NC(=O)CNC(=O)[C@H](Cc1ccc(O)cc1)NC(=O)[C@H](C)NC(=O)[C@@H](CCC(=O)O)NC(=O)[C@@H](CCC(=O)O)NC(=O)[C@@H](CCC(=O)O)NC(=O)[C@@H](CCC(=O)O)NC(=O)[C@@H](CCC(=O)O)NC(=O)[C@@H](CCC(=O)O)NC(=O)CN1CCN(CC(=O)O)CCN(CC(=O)O)CCN(CC(=O)O)CC1)C(=O)N[C@@H](CC(=O)O)C(=O)N[C@@H](Cc1ccccc1)C(N)=O [^111In-CP04, ^111In-DOTA-(DGlu)6-Ala-Tyr-Gly-Trp-Met-Asp-Phe-NH2, metal not drawn]","%ID/g tissue, Intestines",[1],0.29 ± 0.18 %ID/g
same,"%ID/g tissue, Kidneys",[1],6.52 %ID/g
same,"%ID/g tissue, Liver",[1],0.12 ± 0.02 %ID/g
same,"%ID/g tissue, Stomach",[1],1.63 ± 0.20 %ID/g
same,"%ID/g tissue, Tumour(+) (A431-CCK2R(+))",[1],8.49 %ID/g
same,tissue uptake at 1 h,[2]; Blood,0.55 ± 0.17 %ID/g
same,tissue uptake at 4 h,[2]; Blood,0.02 ± 0.01 %ID/g
same,tissue uptake at 1 h,[2]; Femur,0.96 ± 0.46 %ID/g
same,tissue uptake at 4 h,[2]; Femur,0.3 ± 0.22 %ID/g
same,tissue uptake at 24 h,[2]; Femur,0.24 ± 0.09 %ID/g
same,tissue uptake at 1 h,[2]; Heart,0.24 ± 0.08 %ID/g
same,tissue uptake at 4 h,[2]; Heart,0.02 ± 0.01 %ID/g
same,tissue uptake at 24 h,[2]; Heart,0.02 %ID/g
same,tissue uptake at 1 h,[2]; Intestines,0.36 ± 0.13 %ID/g
same,tissue uptake at 4 h,[2]; Intestines,0.22 ± 0.08 %ID/g
same,tissue uptake at 24 h,[2]; Intestines,0.1 ± 0.04 %ID/g
same,tissue uptake at 1 h,[2]; Kidneys,5.53 ± 0.78 %ID/g
same,tissue uptake at 4 h,[2]; Kidneys,5.55 ± 0.94 %ID/g
same,tissue uptake at 24 h,[2]; Kidneys,3.29 ± 0.56 %ID/g
same,tissue uptake at 1 h,[2]; Liver,0.38 ± 0.12 %ID/g
same,tissue uptake at 24 h,[2]; Liver,0.01 ± 0.01 %ID/g
same,tissue uptake at 1 h,[2]; Lung,0.47 ± 0.13 %ID/g
same,tissue uptake at 4 h,[2]; Lung,0.04 ± 0.01 %ID/g
same,tissue uptake at 24 h,[2]; Lung,0.03 ± 0.01 %ID/g
same,tissue uptake at 4 h,[2]; Muscle,0.03 ± 0.02 %ID/g
same,tissue uptake at 24 h,[2]; Muscle,0.01 ± 0.01 %ID/g
same,tissue uptake at 1 h,[2]; Pancreas,0.23 ± 0.08 %ID/g
same,tissue uptake at 4 h,[2]; Pancreas,0.06 ± 0.01 %ID/g
same,tissue uptake at 24 h,[2]; Pancreas,0.05 ± 0.01 %ID/g
same,tissue uptake at 4 h,[2]; Spleen,0.04 ± 0.02 %ID/g
same,tissue uptake at 24 h,[2]; Spleen,0.05 ± 0.01 %ID/g
same,tissue uptake at 1 h,[2]; Stomach,2.6 ± 0.48 %ID/g
same,tissue uptake at 4 h,[2]; Stomach,2.09 ± 0.32 %ID/g
same,tissue uptake at 24 h,[2]; Stomach,1.58 ± 0.15 %ID/g
same,tissue uptake at 1 h,[2]; Tumour(+) (A431-CCK2R(+)),12.6 ± 1.73 %ID/g
same,tissue uptake at 4 h,[2]; Tumour(+) (A431-CCK2R(+)),9.24 ± 1.35 %ID/g
same,tissue uptake at 24 h,[2]; Tumour(+) (A431-CCK2R(+)),4.98 ± 0.56 %ID/g
same,tissue uptake at 1 h,[2]; Tumour(–) (A431-CCK2R(–)),1.07 ± 0.29 %ID/g
same,tissue uptake at 24 h,[2]; Tumour(–) (A431-CCK2R(–)),0.1 ± 0.02 %ID/g
same,calculated absorbed dose for kidneys,[3],27.5 mGy/220 MBq
same,expected whole body radiation dose (effective dose),[3],9.9 mSv
